Results taken from PMC9992173, “Mapping of the extracellular RBP4 ligand binding domain on the RBPR2 receptor for Vitamin A transport” (Frontiers in Cell and Developmental Biology, 2023).
No end group written: not given here.

Molecular target: T1, mouse RBP4 (Mus musculus, UniProt Q00724)
T1 construct: 6XHis; made in house; host or cells: E. coli
Assay: Surface plasmon resonance (SPR) binding of SYL-motif peptides to immobilized RBP4
Settings: SPR affinity fit, Figure 6B; repeated in the discussion as calculated binding affinity; read-out: Best-fit values Kd
Experimental: Purified RBP4 protein with >90% purity and 0.56 mg/mL concentration was immobilized on Biacore Sensor Chip CM5 (ITDD Biacore S200 Surface Plasmon Resonance instrument at University of Minnesota). The two-flow cell surface activated for using one as blank and other as test. Using Amine Coupling Kit (Cat. No. BR100050; Cytiva, Marlborough, MA, US) 1-ethyl-3-(3-dimethylaminopropyl) carbodiimide hydrochloride (EDC), N-hydroxysuccinimide (NHS), after surface activation, the purified RBP4 with immobilization buffer 10 mM Sodium acetate, pH 5.0, was immobilized with target of 1,200 Response Unit (RU) for achieving Rmax of 30RU in kinetic study. The reaction stopped and washed with Ethanolamine. The system was re-primed with running buffer PBST (phosphate-buffered saline solution with a 0.05% Tween20 detergent solution). The kinetic assay performed on the two flow cells, the blank was used as reference cell and the active cell with RBP4 was used for the binding study. […] The program was run and non-specific binding on the reference cell subtracted bulk refractive index from the active sensorgram and analyzed for the association, dissociation and stabilization of the reads. […]

Kd: 25.4 µM
Sequence: HVRDKLDMFEDKLESYLTHMNETGTLTPIILQVKELISVTKG [mouse RBPR2]
